Measured values taken from the supplement of paper PMC11061612.

Key:
Test in all cases: combination Emax (second highest fraction inhibited in the dose matrix, 72 h); higher = more inhibition; extreme values may be limits of the assay
[1] = system: P12-ICHIKAWA (T-Lymphoblastic Leukemia)
In short: (§1)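 Bliss excess equals the observed combination effect minus the expected value EA + EB − EA·EB, where EA and EB are the effects of each agent alone. Combination Emax is the second-highest inhibition within the matrix. Inhibition was scaled from CellTiter-Glo 2.0 luminescence, with 0 set by vehicle wells and 1 by blank wells, after 72 hours of two-drug dosing of cells plated in 1536-well plates.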

NCI-H2818 (Mesothelioma) = system: NCI-H2818 (Mesothelioma)
In short: as §1

[2] = system: GR-ST (B-Lymphoblastic Leukemia)
In short: as §1

[3] = system: MFM-223 (Breast Carcinoma)
In short: as §1

[4] = system: NCI-H1792 (Lung Adenocarcinoma)
In short: as §1

ES1 (Ewing's Sarcoma) = system: ES1 (Ewing's Sarcoma)
In short: as §1

WM-115 (Melanoma) = system: WM-115 (Melanoma)
In short: as §1

TC-71 (Ewing's Sarcoma) = system: TC-71 (Ewing's Sarcoma)
In short: as §1

[5] = system: KM12 (Colorectal Carcinoma)
In short: as §1

[6] = system: DiFi (Colorectal Carcinoma)
In short: as §1

[7] = system: COLO-678 (Colorectal Carcinoma)
In short: as §1

LN-18 (Glioblastoma) = system: LN-18 (Glioblastoma)
In short: as §1

[8] = system: KCL-22 (Chronic Myelogenous Leukemia)
In short: as §1

[9] = system: HDQ-P1 (Breast Carcinoma)
In short: as §1

ES8 (Ewing's Sarcoma) = system: ES8 (Ewing's Sarcoma)
In short: as §1

[10] = system: BL-41 (Burkitt's Lymphoma)
In short: as §1

[11] = system: MOLT-16 (T-Lymphoblastic Leukemia)
In short: as §1

[12] = system: DND-41 (T-Lymphoblastic Leukemia)
In short: as §1

[13] = system: SR (Other Blood Carcinomas)
In short: as §1

SMILES | combination Emax [1] | combination Emax (NCI-H2818 (Mesothelioma)) | combination Emax [2] | combination Emax [3] | combination Emax [4] | combination Emax (ES1 (Ewing's Sarcoma)) | combination Emax (WM-115 (Melanoma)) | combination Emax (TC-71 (Ewing's Sarcoma)) | combination Emax [5] | combination Emax [6] | combination Emax [7] | combination Emax (LN-18 (Glioblastoma)) | combination Emax [8] | combination Emax [9] | combination Emax (ES8 (Ewing's Sarcoma)) | combination Emax [10] | combination Emax [11] | combination Emax [12] | combination Emax [13]
NC1(C(=O)N[C@@H](CCO)c2ccc(Cl)cc2)CCN(c2ncnc3[nH]ccc23)CC1 [Capivasertib] + C[C@@H]1COCCN1C2=NC(=NC(=C2)C3(CC3)[S@](=N)(=O)C)C4=C5C=CNC5=NC=C4 [AZD6738] (first compound max 10 µM, 7x7, partner max 10 µM) | 1 | 0.437 | 0.809 | 0.888 | 0.767 | 0.972 | 0.628 | 0.959 | 0.91 | 0.779 | 0.237 | 0.846 | 0.979 | 0.422 | 0.961 | 0.981 | 1 | 0.886 | 0.954
NC1(C(=O)N[C@@H](CCO)c2ccc(Cl)cc2)CCN(c2ncnc3[nH]ccc23)CC1 [Capivasertib] + Cn1cnc2c(F)c(Nc3ccc(Br)cc3Cl)c(C(=O)NOCCO)cc21 [Selumetinib] (first compound max 10 µM, 7x7, partner max 10 µM) | 0.748 | 0.318 | 0.678 | 0.894 | 0.504 | 0.52 | 0.885 | 0.438 | 0.868 | 0.905 | 0.544 | 0.603 | 0.604 | 0.596 | 0.533 | 0.287 | 0.805 | 0.233 | 0.582
Cc1nc(Nc2ncc(C(=O)Nc3c(C)cccc3Cl)s2)cc(N2CCN(CCO)CC2)n1 [Dasatinib] + CC(=O)Nc1cccc(-n2c(=O)n(C3CC3)c(=O)c3c(Nc4ccc(I)cc4F)n(C)c(=O)c(C)c32)c1 [Trametinib] (first compound max 2 µM, 7x7, partner max 1 µM) | 0.517 | 0.582 | 0.361 | 0.561 | 1 | 0.0713 | 0.805 | 0.146 | 0.714 | 0.784 | 0.559 | 0.353 | 0.93 | 0.958 | 0.223 | 0.144 | 0.326 | 0.263 | 0.245
COc1cc2ncnc(Nc3ccc(F)c(Cl)c3)c2cc1OCCCN1CCOCC1 [Gefitinib] + CC(C)n1c(=O)n(C)c2cnc3cc(F)c(-c4ccc(OCCCN5CCCCC5)nc4)cc3c21 [AZD1390] (first compound max 10 µM, 7x7, partner max 0.3 µM) | 0.144 | 0.146 | 0.39 | 0.121 | 0.231 | 0.353 | 0.139 | 0.183 | 0.044 | 0.919 | 0.306 | 0.146 | 0.155 | 0.383 | 0.178 | 0.279 | 0.363 | 0.115 | 0.2
CS(=O)(=O)CCNCc1ccc(-c2ccc3ncnc(Nc4ccc(OCc5cccc(F)c5)c(Cl)c4)c3c2)o1 [Lapatinib] + C[C@@H](Oc1cc(-c2cnn(C3CCNCC3)c2)cnc1N)c1c(Cl)ccc(F)c1Cl [Crizotinib] (first compound max 10 µM, 7x7, partner max 10 µM) | 0.975 | 0.59 | 0.988 | 0.662 | 0.924 | 0.965 | 0.877 | 0.758 | 0.93 | 1 | 0.62 | 0.965 | 0.979 | 0.936 | 1 | 0.96 | 0.992 | 0.946 | 1
CC(=O)c1c(C)c2cnc(Nc3ccc(N4CCNCC4)cn3)nc2n(C2CCCC2)c1=O [Palbociclib] + CC1(C)CCC(CN2CCN(c3ccc(C(=O)NS(=O)(=O)c4ccc(NCC5CCOCC5)c([N+](=O)[O-])c4)c(Oc4cnc5[nH]ccc5c4)c3)CC2)=C(c2ccc(Cl)cc2)C1 [Venetoclax] (first compound max 10 µM, 7x7, partner max 1 µM) | 0.671 | 0.203 | 0.715 | 0.346 | 0.465 | 0.56 | 0.0976 | 0.272 | 0.683 | 0.47 | 0.222 | 0.383 | 0.513 | 0.109 | 0.461 | 0.312 | 0.985 | 0.45 | 0.94
CC(=O)c1c(C)c2cnc(Nc3ccc(N4CCNCC4)cn3)nc2n(C2CCCC2)c1=O [Palbociclib] + Cc1c2c(nn1C)CSCc1cc(n(C)n1)CSc1cc(c3ccccc3c1)OCCCc1c(C(=O)O)n(C)c3c-2c(Cl)ccc13 [AZD5991] (first compound max 10 µM, 7x7, partner max 1 µM) | 0.83 | 0.367 | 0.719 | 0.388 | 0.571 | 0.917 | 0.293 | 0.586 | 0.752 | 0.548 | 0.351 | 0.477 | 0.673 | 0.263 | 0.65 | 0.998 | 1 | 0.51 | 0.993
CC(=O)c1c(C)c2cnc(Nc3ccc(N4CCNCC4)cn3)nc2n(C2CCCC2)c1=O [Palbociclib] + Cn1cnc2c(F)c(Nc3ccc(Br)cc3Cl)c(C(=O)NOCCO)cc21 [Selumetinib] (first compound max 10 µM, 7x7, partner max 10 µM) | 0.77 | 0.208 | 0.726 | 0.317 | 0.651 | 0.616 | 0.415 | 0.396 | 0.768 | 0.751 | 0.525 | 0.359 | 0.569 | 0.289 | 0.823 | 0.433 | 0.827 | 0.489 | 0.873
C[C@@H](c1ccc2nccn2c1)n1nnc2ncc(-c3cnn(C)c3)nc21 [Savolitinib] + CC1(C)CCC(CN2CCN(c3ccc(C(=O)NS(=O)(=O)c4ccc(NCC5CCOCC5)c([N+](=O)[O-])c4)c(Oc4cnc5[nH]ccc5c4)c3)CC2)=C(c2ccc(Cl)cc2)C1 [Venetoclax] (first compound max 1 µM, 7x7, partner max 1 µM) | 0.188 | 0.127 | 0.218 | 0.0596 | 0.108 | 0.113 | 0.199 | 0.119 | 0.058 | 0.11 | 0.146 | 0.146 | 0.137 | 0.117 | 0.259 | 0.106 | 0.58 | 0.233 | 0.437
C[C@@H](c1ccc2nccn2c1)n1nnc2ncc(-c3cnn(C)c3)nc21 [Savolitinib] + Cc1c2c(nn1C)CSCc1cc(n(C)n1)CSc1cc(c3ccccc3c1)OCCCc1c(C(=O)O)n(C)c3c-2c(Cl)ccc13 [AZD5991] (first compound max 1 µM, 7x7, partner max 1 µM) | 0.29 | 0.16 | 0.145 | 0.244 | 0.214 | 0.743 | 0.185 | 0.412 | 0.159 | 0.257 | 0.161 | 0.202 | 0.289 | 0.2 | 0.292 | 1 | 1 | 0.172 | 0.772
Cn1cnc2c(F)c(Nc3ccc(Br)cc3Cl)c(C(=O)NOCCO)cc21 [Selumetinib] + C=CCn1c(=O)c2cnc(Nc3ccc(N4CCN(C)CC4)cc3)nc2n1-c1cccc(C(C)(C)O)n1 [AZD1775] (first compound max 10 µM, partner max 1 µM) | 1 | 0.303 | 0.801 | 0.446 | 0.632 | 0.602 | 0.402 | 0.355 | 0.884 | 0.849 | 0.52 | 0.461 | 0.943 | 0.673 | 0.491 | 1 | 1 | 0.898 | 0.978
Cn1cnc2c(F)c(Nc3ccc(Br)cc3Cl)c(C(=O)NOCCO)cc21 [Selumetinib] + CC(C)n1c(=O)n(C)c2cnc3cc(F)c(-c4ccc(OCCCN5CCCCC5)nc4)cc3c21 [AZD1390] (first compound max 10 µM, 7x7, partner max 0.3 µM) | 0.305 | 0.138 | 0.225 | 0.0965 | 0.378 | 0.0951 | 0.411 | 0.237 | 0.657 | 0.641 | 0.502 | 0.157 | 0.478 | 0.248 | 0.263 | 0.209 | 0.277 | 0.157 | 0.129
Cn1cnc2c(F)c(Nc3ccc(Br)cc3Cl)c(C(=O)NOCCO)cc21 [Selumetinib] + CCN(CCO)CCCOc1ccc2c(Nc3cc(CC(=O)Nc4cccc(F)c4)[nH]n3)ncnc2c1 [AZD2811] (first compound max 10 µM, 7x7, partner max 1 µM) | 1 | 0.168 | 0.316 | 0.17 | 0.423 | 0.532 | 0.434 | 0.838 | 0.676 | 0.813 | 0.51 | 0.34 | 0.593 | 0.393 | 0.996 | 0.629 | 1 | 0.199 | 0.942
